Measurements from publication PMC9501280, “Anti-Inflammatory Activity of Soluble Epoxide Hydrolase Inhibitors Based on Selenoureas Bearing an Adamantane Moiety” (International Journal of Molecular Sciences, 2022).

Experiments:
[1] = tested on: E. coli MG1655 pSoxS-lux; assay: Lux-biosensor, superoxide anion radicals (PsoxS); type: cell-based, Escherichia coli; settings: compounds 1 μM to 1 mM; Standard = methyl viologen 100 μM
Procedure: The study was carried out with use of the following whole-cell bacterial biosensors: Escherichia coli MG1655 pOxyR-lux, E. coli MG1655 pDps, E. coli MG1655 pSoxS-lux, E. coli MG1655 pColD-lux, E. coli MG1655 pAlkA-lux, E. coli MG1655 pXen7, Bacillus subtilis 168 pNK-AlkA, B. subtilis 168 pNK-MrgA and B. subtilis 168 pNK-DinC. These biosensors by the quantitation of bacterial stress promoters’ activity, make it possible to determine oxidative stress caused by hydrogen peroxide and the superoxide anion radical, SOS response, DNA alkylation, or general toxicity in Gram-positive and Gram-negative B. subtilis and E. coli cells. We used concentrations from 1 μM to 1 mM of the studied compounds added to the suspension of biosensor cells. […]
The bioluminescence of cells was measured using a Synergy HT luminometer (Biotek, Winooski, VT, USA) at room temperature. Lux biosensors based on E. coli were grown to an early logarithmic phase (OD ≈ 0.1) to achieve a background luminescence approximately 100–1000 RLU at the beginning of the measurements. Lux biosensors based on B. subtilis were grown to a logarithmic phase with an optical density OD ≈ 0.6 (and background luminescence of about 10–500 RLU). […] The kinetics of change in luminescence was measured at room temperature. […]

[2] = tested on: E. coli MG1655 pAlkA-lux; type: cell-based, Escherichia coli; settings: compounds 1 μM to 1 mM; Standard = methyl methanesulfonate 1 mM
Procedure: (§1) The study was carried out with use of the following whole-cell bacterial biosensors: Escherichia coli MG1655 pOxyR-lux, E. coli MG1655 pDps, E. coli MG1655 pSoxS-lux, E. coli MG1655 pColD-lux, E. coli MG1655 pAlkA-lux, E. coli MG1655 pXen7, Bacillus subtilis 168 pNK-AlkA, B. subtilis 168 pNK-MrgA and B. subtilis 168 pNK-DinC. These biosensors by the quantitation of bacterial stress promoters’ activity, make it possible to determine oxidative stress caused by hydrogen peroxide and the superoxide anion radical, SOS response, DNA alkylation, or general toxicity in Gram-positive and Gram-negative B. subtilis and E. coli cells. We used concentrations from 1 μM to 1 mM of the studied compounds added to the suspension of biosensor cells.
(§2) pColD-lux―PcolD is induced by the SOS response; pDps―Pdps is activated in the presence of DNA-oxidizing agents; pSoxS-lux―PSoxS is induced in the presence of superoxide anion radicals; pOxyR-lux―PoxyR is induced in response to the appearance of hydrogen peroxide or organic peroxides; pAlkA-lux―PalkA is induced in response to DNA alkylation. pXen7 contains P. luminescens ZM1 lux genes controlled by its own promoter, which was used as a constitutive.
(§3) The bioluminescence of cells was measured using a Synergy HT luminometer (Biotek, Winooski, VT, USA) at room temperature. Lux biosensors based on E. coli were grown to an early logarithmic phase (OD ≈ 0.1) to achieve a background luminescence approximately 100–1000 RLU at the beginning of the measurements. Lux biosensors based on B. subtilis were grown to a logarithmic phase with an optical density OD ≈ 0.6 (and background luminescence of about 10–500 RLU). Biosensor cell cultures were divided into portions of 200 μL in a 96-well plate. Control toxicants and studied compounds were added to the cell suspension at 2 µL per well. Mitomycin C (at final concentration of 30 μM) for biosensors induced by the SOS response (PcolD and PdinC); methyl methanesulfonate (1 mM) for biosensors induced by DNA alkylation (PalkA); hydrogen peroxide (100 μM) for biosensors induced by presence of peroxides (PoxyR, Pdps and PmrgA) and methyl viologen (100 μM) for PsoxS activation by the presence of superoxide anion radicals. The kinetics of change in luminescence was measured at room temperature.
(§4) To unify the obtained results and eliminate the differences between the experiments due to different initial luminescence values, the luminescence value in each sample was normalized to the initial value according to Equation (1): (1) Lnorm(t, x)=L(t, x)/L(0, x) where Lnorm(t,x)—luminescence normalized to the initial value for the sample x, L(t,x) is the luminescence of sample x at time t and L(0,x) is the initial luminescence of sample x (immediately after addition of the studied compound or control toxicant). This normalization considers the optical density of the studied compound and the luminescence shielding caused by it, which appears immediately after the addition and facilitates the analysis of a slower effect associated with the general toxicity and activation of stress-inducible promoters for which the typical time of activation is in a range from several minutes to 3 h.
(§5) To determine the luminescence induction coefficient of biosensor cells, observed due to changes in the level of reporter genes transcription, the following equation was used:(2) Kind(t, x)=Lnorm(t, x)/Lnorm(t, contr) where Kind(t) is the calculated luminescence induction coefficient of biosensor cells in sample x at time point t, and Lnorm(t,contr) is the normalized luminescence in the control sample of the same biosensor cells without the addition of the studied compounds.

[3] = tested on: E. coli MG1655 pOxyR-lux; type: cell-based, Escherichia coli; settings: compounds 1 μM to 1 mM; Standard = hydrogen peroxide 100 μM
Procedure: as §1, §2, §3, §4, §5

[4] = tested on: E. coli MG1655 pDps; type: cell-based, Escherichia coli; settings: compounds 1 μM to 1 mM; Standard = hydrogen peroxide 100 μM
Procedure: as §1, §2, §3, §4, §5

[5] = tested on: E. coli MG1655 pColD-lux; type: cell-based, Escherichia coli; settings: compounds 1 μM to 1 mM; Standard = Mitomycin C 30 μM
Procedure: as §1, §2, §3, §4, §5

[6] = tested on: human neuroblastoma cells (SH-SY5Y); assay: MTT test on neuroblastoma cells; type: cell-based; settings: 72 h, read-out: EC50 ± SEM, SH-SY5Y
Procedure: For compounds with evident anti-inflammatory activity (4a and 5b) and one outgroup compound (4g), MTT tests with the human fibroblast cells (MRC-5) and human neuroblastoma cells (SH-SY5Y) were carried out. The studied compounds were added in concentrations of 1, 3, 6, 12, 25, 50, and 100 μM.
The MTT test to determine the effect of cell viability was performed on the SH-SY5Y neuroblastoma cell line in a 96-well plate.
Cells grown to 80% confluence were trypsinized and plated at a density of 5000 cells per well (100 µL total well volume) and incubated overnight in a CO2 incubator. The next day, a 50 mM stock of studied compounds in DMSO was diluted in DMEM and added in the amount of 50 μL per well to obtain final concentrations of 1–100 μM. […] After that, the supernatant was discarded, 100 μL of DMSO was added and, after the dissolution of the formazan crystals, the absorbance at 570 nm was measured on a Synergy HT plate reader (Biotek, Winooski, VT, USA). […]
All experiments with SH-SY5Y, E. coli and B. subtilis cell cultures were performed in 3 independent repetitions. The error in the luminescence measurements was calculated using the standard deviation equation based on 3 repeats, its values on the graphs are shown with error bars. EC50 concentrations were determined using Combenefit software.

SMILES	max(Kind), E. coli MG1655 pSoxS-lux [1]	max(Kind), E. coli MG1655 pAlkA-lux [2]	max(Kind), E. coli MG1655 pOxyR-lux [3]	max(Kind), E. coli MG1655 pDps [4]	max(Kind), E. coli MG1655 pColD-lux [5]	EC50 [6] [µM]
[Se]=C(Nc1ccccc1)NC12CC3CC(CC(C3)C1)C2 [4a, 1-(Adamantan-1-yl)-3-phenylselenourea]	1.16 ± 0.19	1.15 ± 0.33	2.62 ± 0.7	1.15 ± 0.25	1.5 ± 0.6	16.5 ± 1.5
[Se]=C(Nc1ccccc1)NC1C2CC3CC(C2)CC1C3 (stereo not drawn) [4g, 1-(Adamantan-2-yl)-3-phenylselenourea]	1.0 ± 0.1	1.05 ± 0.30	1.12 ± 0.16	1.2 ± 0.4	1.26 ± 0.31	8.6 ± 0.9
